Results as given in ChEMBL document CHEMBL1144176, “Synthesis and biological evaluation of indolyl bisphosphonates as anti-bone resorptive and anti-leishmanial agents” (Bioorg Med Chem, 2008).
In brackets after ≈: the same amount, converted by molar mass. Activity calls are given as the source filed them. No cut-off for these calls is given here.

Assays:
[1] = Cytotoxicity against Sprague-Dawley rat calvarial osteoblast cells at 10 pM to 1 uM after 48 hrs by MTT assay; type: cell-based
Bone marrow cell [2] = experiment: Antibone resorptive activity in mouse bone marrow cells assessed as inhibition of osteoclastogenesis at 100 nM after 7 days by TRAP assay in presence of MCSF and RANKL; type: functional, cell-based
Bone marrow cell [3] = experiment: Antibone resorptive activity in mouse bone marrow cells assessed as inhibition of osteoclastogenesis at 100 pM after 7 days by TRAP assay in presence of MCSF and RANKL; type: functional, cell-based
Osteoclast [4] = experiment: Induction of apoptosis in mouse osteoclast cells assessed as nucleosomal DNA fragmentation at 100 nM after 48 hrs by Hoechst 33258 staining; type: functional, cell-based
Mus musculus [5] = experiment: Antibone resorptive activity in BALB/c ovariectomized mouse bone marrow cells assessed as inhibition of osteoclastogenesis at 10 mg/kg by TRAP assay relative to control in presence of MCSF and RANKL; type: functional; design: scale not given: the % may be the effect or the level left
Mus musculus [6] = experiment: Induction of osteoclastogenesis in BALB/c ovariectomized mouse bone marrow cells at 10 mg/kg by TRAP assay relative to sham group in presence of MCSF and RANKL; type: functional
Leishmania donovani [7] = experiment: Antileishmanial activity against Leishmania donovani MHOM/IN/80/Dd8 promastigotes infected in mouse J774A1 cells at 10 ug/mL after 96 hrs by MTT assay relative to control; type: functional; conditions: for inhibition at 10 µg/mL: MHOM/IN/80/Dd8, J774.A1, 96 h; for Activity: J774.A1
Leishmania donovani [8] = experiment: Antileishmanial activity against Leishmania donovani MHOM/IN/80/Dd8 promastigotes infected in mouse J774A1 cells at 6.25 ug/mL after 96 hrs by MTT assay relative to control; type: functional; conditions: MHOM/IN/80/Dd8, J774.A1, 96 h
Leishmania donovani [9] = experiment: Antileishmanial activity against Leishmania donovani MHOM/IN/80/Dd8 amastigotes infected in mouse J774A1 cells at 10 ug/mL after 72 hrs by MTT assay relative to control; type: functional; conditions: for inhibition at 10 µg/mL: MHOM/IN/80/Dd8, J774.A1, 72 h; for Activity: J774.A1
Leishmania donovani [10] = experiment: Antileishmanial activity against Leishmania donovani MHOM/IN/80/Dd8 amastigotes infected in mouse J774A1 cells at 5 ug/mL after 72 hrs by MTT assay relative to control; type: functional; conditions: MHOM/IN/80/Dd8, J774.A1, 72 h
Leishmania donovani [11] = experiment: Antileishmanial activity against Leishmania donovani MHOM/IN/80/Dd8 amastigotes infected in mouse J774A1 cells at 2 ug/mL after 72 hrs by MTT assay relative to control; type: functional; conditions: MHOM/IN/80/Dd8, J774.A1, 72 h
Leishmania donovani [12] = experiment: Antileishmanial activity against Leishmania donovani MHOM/IN/80/Dd8 amastigotes infected in mouse J774A1 cells at 1 ug/mL after 72 hrs by MTT assay relative to control; type: functional; conditions: MHOM/IN/80/Dd8, J774.A1, 72 h
Leishmania donovani [13] = experiment: Antileishmanial activity against Leishmania donovani MHOM/IN/80/Dd8 amastigotes infected in mouse J774A1 cells after 72 hrs by MTT assay; type: functional, organism-based; conditions: MHOM/IN/80/Dd8, J774.A1, 72 h
[14] = Cytotoxicity against mouse J774A1 cells after 72 hrs by MTT assay; type: cell-based, J774.A1
Osteoclast [15] = experiment: Induction of apoptosis in mouse osteoclast cells assessed as nucleosomal DNA fragmentation at 10 pM after 48 hrs by Hoechst 33258 staining; type: functional, cell-based
Bone marrow cell [16] = experiment: Antibone resorptive activity in mouse bone marrow cells assessed as inhibition of osteoclastogenesis at 10 pM after 7 days by TRAP assay in presence of MCSF and RANKL; type: functional, cell-based
Leishmania donovani [17] = experiment: Antileishmanial activity against Leishmania donovani MHOM/IN/80/Dd8 promastigotes infected in mouse J774A1 cells at 2000 ug/mL after 96 hrs by MTT assay relative to control; type: functional, organism-based; conditions: J774.A1
Leishmania donovani [18] = experiment: Antileishmanial activity against Leishmania donovani MHOM/IN/80/Dd8 promastigotes infected in mouse J774A1 cells at 1000 ug/mL after 96 hrs by MTT assay relative to control; type: functional, organism-based; conditions: J774.A1
Leishmania donovani [19] = experiment: Antileishmanial activity against Leishmania donovani MHOM/IN/80/Dd8 promastigotes infected in mouse J774A1 cells at 500 ug/mL after 96 hrs by MTT assay relative to control; type: functional, organism-based; conditions: J774.A1
Leishmania donovani [20] = experiment: Antileishmanial activity against Leishmania donovani MHOM/IN/80/Dd8 amastigotes infected in mouse J774A1 cells at 200 ug/mL after 72 hrs by MTT assay relative to control; type: functional, organism-based; conditions: J774.A1
Leishmania donovani [21] = experiment: Antileishmanial activity against Leishmania donovani MHOM/IN/80/Dd8 amastigotes infected in mouse J774A1 cells at 100 ug/mL after 72 hrs by MTT assay relative to control; type: functional, organism-based; conditions: J774.A1
Leishmania donovani [22] = experiment: Antileishmanial activity against Leishmania donovani MHOM/IN/80/Dd8 amastigotes infected in mouse J774A1 cells at 50 ug/mL after 72 hrs by MTT assay relative to control; type: functional, organism-based; conditions: J774.A1
Leishmania donovani [23] = experiment: Antileishmanial activity against Leishmania donovani MHOM/IN/80/Dd8 amastigotes infected in mouse J774A1 cells at 25 ug/mL after 72 hrs by MTT assay relative to control; type: functional, organism-based; conditions: J774.A1

## CCOP(=O)(OCC)C(O)(CCCCCn1c2c(c3ccccc31)CCSc1ccccc1-2)P(=O)(OCC)OCC
[1]
  Activity: Not Active
Bone marrow cell [2]
  Activity: inactive
Bone marrow cell [3]
  Activity: Active
Osteoclast [4]
  Activity: Active
Mus musculus [5]
  Activity: 9%
Mus musculus [6]
  Activity: 40%
Leishmania donovani [7]
  inhibition at 10 µg/mL: 100%
Leishmania donovani [8]
  inhibition at 6.25 µg/mL: 99.6%
Leishmania donovani [9]
  inhibition at 10 µg/mL: 78.2%
Leishmania donovani [10]
  inhibition at 5 µg/mL: 58.8%
Leishmania donovani [11]
  inhibition at 2 µg/mL: 16.8%
Leishmania donovani [12]
  inhibition at 1 µg/mL: 4.2%
Leishmania donovani [13]
  IC50: 1.69 µg/mL (≈ 2.71 µM)
[14]
  CC50 at 72 h: 3.66 µg/mL (≈ 5.87 µM)

## O=P([O-])([O-])C(O)(CCCn1c2c(c3ccccc31)CCSc1ccccc1-2)P(=O)([O-])[O-].[Na+].[Na+].[Na+].[Na+]
[1]
  Activity: Active
Leishmania donovani [7]
  Activity: inactive
Leishmania donovani [9]
  inhibition at 10 µg/mL: 6.3%

## O=P([O-])([O-])C(O)(CCCCn1c2c(c3ccccc31)CCSc1ccccc1-2)P(=O)([O-])[O-].[Na+].[Na+].[Na+].[Na+]
[1]
  Activity: Not Active
Bone marrow cell [2]
  Activity: Active
Leishmania donovani [7]
  Activity: inactive
Leishmania donovani [9]
  inhibition at 10 µg/mL: 55.3%

## CCOP(=O)(OCC)C(O)(CCCCCCn1c2c(c3ccccc31)CCSc1ccccc1-2)P(=O)(OCC)OCC
[1]
  Activity: Not Active
Bone marrow cell [2]
  Activity: Active
Leishmania donovani [7]
  inhibition at 10 µg/mL: 100%
Leishmania donovani [8]
  inhibition at 6.25 µg/mL: 90.1%
Leishmania donovani [9]
  inhibition at 10 µg/mL: 85%
Leishmania donovani [10]
  inhibition at 5 µg/mL: 67.2%
Leishmania donovani [11]
  inhibition at 2 µg/mL: 40%
Leishmania donovani [12]
  inhibition at 1 µg/mL: 25.5%
Leishmania donovani [13]
  IC50: 2.56 µg/mL (≈ 4.01 µM)
[14]
  CC50 at 72 h: 4.5 µg/mL (≈ 7.06 µM)

## CCOP(=O)(OCC)C(O)(CCCCCn1c2c(c3ccccc31)CCCc1ccccc1-2)P(=O)(OCC)OCC
[1]
  Activity: Not Active
Leishmania donovani [7]
  inhibition at 10 µg/mL: 85.7%
Leishmania donovani [8]
  inhibition at 6.25 µg/mL: 26.1%
Leishmania donovani [9]
  Activity: Toxic

## NCCCC(O)(P(=O)(O)O)P(=O)(O)O
Bone marrow cell [2]
  Activity: Active

## CCOP(=O)(OCC)C(O)(CCCCn1c2c(c3ccccc31)CCCc1ccccc1-2)P(=O)(OCC)OCC
[1]
  Activity: Not Active
Bone marrow cell [2]
  Activity: Active
Leishmania donovani [7]
  inhibition at 10 µg/mL: 99.8%
Leishmania donovani [8]
  inhibition at 6.25 µg/mL: 86.4%
Leishmania donovani [10]
  inhibition at 5 µg/mL: 78.3%
Leishmania donovani [11]
  inhibition at 2 µg/mL: 80.6%
Leishmania donovani [12]
  inhibition at 1 µg/mL: 3%
Leishmania donovani [13]
  IC50: 24 µg/mL (≈ 40.6 µM)
[14]
  CC50 at 72 h: 5.81 µg/mL (≈ 9.82 µM)

## O=P([O-])([O-])C(O)(CCn1c2c(c3ccccc31)CCSc1ccccc1-2)P(=O)([O-])[O-].[Na+].[Na+].[Na+].[Na+]
[1]
  Activity: Active
Leishmania donovani [7]
  inhibition at 10 µg/mL: 23.5%
Leishmania donovani [9]
  Activity: inactive

## O=P([O-])([O-])C(O)(Cn1c2c(c3ccccc31)CCSc1ccccc1-2)P(=O)([O-])[O-].[Na+].[Na+].[Na+].[Na+]
[1]
  Activity: Active
Leishmania donovani [7]
  Activity: inactive
Leishmania donovani [9]
  inhibition at 10 µg/mL: 33.5%

## CCOP(=O)(OCC)C(O)(CCCCn1c2c(c3ccccc31)CCOc1ccccc1-2)P(=O)(OCC)OCC
[1]
  Activity: Active
Leishmania donovani [7]
  inhibition at 10 µg/mL: 39.4%
Leishmania donovani [9]
  Activity: inactive

## CCOP(=O)(OCC)C(O)(CCCCn1c2c(c3ccccc31)CCSc1ccccc1-2)P(=O)(OCC)OCC
[1]
  Activity: Not Active
Bone marrow cell [2]
  Activity: inactive
Bone marrow cell [3]
  Activity: Active
Osteoclast [15]
  Activity: Active
Bone marrow cell [16]
  Activity: Active
Mus musculus [5]
  Activity: 8.4%
Mus musculus [6]
  Activity: 40%
Leishmania donovani [7]
  inhibition at 10 µg/mL: 27.8%
Leishmania donovani [9]
  inhibition at 10 µg/mL: 9.45%

## Sodium Stibogluconate
Leishmania donovani [17]
  inhibition: 72.8%
Leishmania donovani [18]
  inhibition: 55.5%
Leishmania donovani [19]
  inhibition: 29.1%
Leishmania donovani [20]
  inhibition: 99.8%
Leishmania donovani [21]
  inhibition: 78.8%
Leishmania donovani [22]
  inhibition: 48.4%
Leishmania donovani [23]
  inhibition: 11.4%
